{
  "source": "patent US20100047306A1",
  "about": "“PHARMACEUTICAL COMPOSITIONS COMPRISING BISPHOSPONATES” (NOVARTIS AG, priority 2006, published 2010)",
  "tested_on": "Wistar rats",
  "test": "Tolerability study of calcium zoledronate microparticles in rats after s.c. administration (skin fold thickness)",
  "type": "in vivo, rat",
  "settings": "s.c. injection of suspension, 60 microgram, female Wistar rats",
  "protocol": "The microparticles of Examples 2 and 3 are suspended in a vehicle containing sodium carboxy methylcellulose, D-mannitol, Pluronics F68 and water for injection. 200 microliters of these suspensions were injected subcutaneously to the shaved skin at the left dorsal side of 8 weeks old female virgin Wistar rats (body weight approximately 220 g). In this way 1 mg dose (per animal) of zoledronic acid of the 15% calcium zoledronate microparticles (Example 3) and 2 mg dose (per animal) of zoledronic acid of the 10% calcium zoledronate microparticles (Example 2) were applied to a group of 6 animals per formulation. The thickness of the skin will be measured by a micro-caliper at the side of injection and the contra-lateral non-injected side. As reference a suspension of non-encapsulated drug substance is injected in a dose of 60 microgram. In addition, placebo microparticles made out of PLGA 75:25 (IV 0.68 dL/g) are also injected as control.",
  "data": [
    {"smiles": "O=P([O-])(O)C(O)(Cn1ccnc1)P(=O)([O-])O.[Ca+2]", "note": "[non-encapsulated drug substance, calcium zoledronate]", "values": [
      {"measurement": "swelling of the skin / local skin irritation", "result": "strong swelling of the skin"}
    ]}
  ]
}
